# Biological target: T1, GlyT1 (Homo sapiens, UniProt P48067)
# T1 construct: expressed in transfected cells
# T1 sequence (P48067 1-706): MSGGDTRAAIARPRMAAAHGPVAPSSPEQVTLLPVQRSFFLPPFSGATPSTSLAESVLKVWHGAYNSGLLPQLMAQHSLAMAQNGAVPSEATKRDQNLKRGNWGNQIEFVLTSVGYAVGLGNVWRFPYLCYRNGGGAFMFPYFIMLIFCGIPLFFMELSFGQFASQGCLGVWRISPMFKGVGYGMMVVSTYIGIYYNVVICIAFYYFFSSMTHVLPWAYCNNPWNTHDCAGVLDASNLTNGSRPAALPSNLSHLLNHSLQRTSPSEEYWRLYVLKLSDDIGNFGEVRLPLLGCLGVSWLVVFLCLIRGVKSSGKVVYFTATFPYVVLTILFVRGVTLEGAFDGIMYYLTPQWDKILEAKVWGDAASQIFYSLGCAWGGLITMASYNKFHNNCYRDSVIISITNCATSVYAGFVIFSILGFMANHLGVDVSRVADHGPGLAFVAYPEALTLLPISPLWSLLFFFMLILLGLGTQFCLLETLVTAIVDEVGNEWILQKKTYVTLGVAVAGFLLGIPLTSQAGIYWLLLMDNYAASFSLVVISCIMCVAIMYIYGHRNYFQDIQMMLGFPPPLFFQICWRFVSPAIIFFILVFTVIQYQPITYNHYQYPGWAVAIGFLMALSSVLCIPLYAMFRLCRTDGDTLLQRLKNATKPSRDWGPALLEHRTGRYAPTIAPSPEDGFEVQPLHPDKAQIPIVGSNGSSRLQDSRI
# Experiment: Glycine Transporter 1 (GlyT1) uptake assay, scintillation proximity assay of [14C]-glycine uptake
# Format: cell-based
# Conditions: SPA, four parameter logistic fit, read-out: GlyT1 (pIC50) (converted)
# Summary of the method: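 IC50 values derive from four-parameter logistic curves fitted to dose-response data. Uptake of [14C]-glycine measured in scintillation proximity format.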
row,SMILES,IC50 [µM]
1,"C[C@H](Oc1ccc(C#N)c(Cl)c1C(=O)N1Cc2cn(-c3ncccc3F)nc2C1)C(F)(F)F [Example 262, 2-Chloro-3-[2-(3-fluoropyridin-2-yl)-2H 4H 5H 6H-pyrrolo[3,4-c]pyrazole-5-carbonyl]-4-{[(2S)-1 1 1-trifluoropropan-2-yl]oxy}benzonitrile]",< 0.1
2,"COc1c(C#N)ccc(O[C@@H](C)C(F)(F)F)c1C(=O)N1Cc2cn(-c3ccccn3)nc2C1 [Example 263, 2-Methoxy-3-[2-(pyridin-2-yl)-2H 4H 5H 6H-pyrrolo[3,4-c]pyrazole-5-carbonyl]-4-{[(2S)-1 1 1-trifluoropropan-2-yl]oxy}benzonitrile]",< 0.1
3,C[C@H](Oc1ccc(C#N)c(Cl)c1C(=O)N1Cc2cn(-c3ccccn3)nc2C1)C(F)(F)F [Example 264],< 0.1
4,"Cc1ccc(-n2cc3c(n2)CN(C(=O)c2c(O[C@@H](C)C(F)(F)F)ccc(C#N)c2Cl)C3)cn1 [Example 265, 2-Chloro-3-[2-(6-methylpyridin-3-yl)-2H 4H 5H 6H-pyrrolo[3,4-c]pyrazole-5-carbonyl]-4-{[(2S)-1 1 1-trifluoropropan-2-yl]oxy}benzonitrile]",0.1 to 1
5,"COc1c(C#N)ccc(O[C@@H](C)C(F)(F)F)c1C(=O)N1Cc2cn(-c3ccc(C)nc3)nc2C1 [Example 266, 2-Methoxy-3-[2-(6-methylpyridin-3-yl)-2H 4H 5H 6H-pyrrolo[3,4-c]pyrazole-5-carbonyl]-4-{[(2S)-1 1 1-trifluoropropan-2-yl]oxy}benzonitrile]",< 0.1
6,"C[C@H](Oc1ccc(C#N)c(Cl)c1C(=O)N1Cc2cn(-c3cccc(F)c3)nc2C1)C(F)(F)F [Example 267, 2-Chloro-3-[2-(3-fluorophenyl)-2H 4H 5H 6H-pyrrolo[3,4-c]pyrazole-5-carbonyl]-4-{[(2S)-1 1 1-trifluoropropan-2-yl]oxy}benzonitrile]",< 0.1
7,"COc1c(C#N)ccc(O[C@@H](C)C(F)(F)F)c1C(=O)N1Cc2cn(-c3cccc(F)c3)nc2C1 [Example 268, 3-[2-(3-Fluorophenyl)-2H 4H 5H 6H-pyrrolo[3,4-c]pyrazole-5-carbonyl]-2-methoxy-4-{[(2S)-1 1 1-trifluoropropan-2-yl]oxy}benzonitrile]",< 0.1
8,"C[C@H](Oc1ccc(C#N)c(Cl)c1C(=O)N1Cc2cn(-c3ccccc3F)nc2C1)C(F)(F)F [Example 269, 2-Chloro-3-[2-(2-fluorophenyl)-2H 4H 5H 6H-pyrrolo[3,4-c]pyrazole-5-carbonyl]-4-{[(2S)-1 1 1-trifluoropropan-2-yl]oxy}benzonitrile]",< 0.1
9,"COc1c(C#N)ccc(O[C@@H](C)C(F)(F)F)c1C(=O)N1Cc2cn(-c3ccccc3F)nc2C1 [Example 270, 3-[2-(2-Fluorophenyl)-2H 4H 5H 6H-pyrrolo[3,4-c]pyrazole-5-carbonyl]-2-methoxy-4-{[(2S)-1 1 1-trifluoropropan-2-yl]oxy}benzonitrile]",< 0.1
10,"Cc1cccnc1-n1cc2c(n1)CN(C(=O)c1c(O[C@@H](C)C(F)(F)F)ccc(C#N)c1Cl)C2 [Example 271, 2-Chloro-3-[2-(3-methylpyridin-2-yl)-2H 4H 5H 6H-pyrrolo[3,4-c]pyrazole-5-carbonyl]-4-{[(2S)-1 1 1-trifluoropropan-2-yl]oxy}benzonitrile]",0.1 to 1
11,"COc1c(C#N)ccc(O[C@@H](C)C(F)(F)F)c1C(=O)N1Cc2cn(-c3ncccc3C)nc2C1 [Example 272, 2-Methoxy-3-[2-(3-methylpyridin-2-yl)-2H 4H 5H 6H-pyrrolo[3,4-c]pyrazole-5-carbonyl]-4-{[(2S)-1 1 1-trifluoropropan-2-yl]oxy}benzonitrile]",< 0.1
12,"Cc1ccnc(-n2cc3c(n2)CN(C(=O)c2c(O[C@@H](C)C(F)(F)F)ccc(C#N)c2Cl)C3)c1 [Example 273, 2-Chloro-3-[2-(4-methylpyridin-2-yl)-2H 4H 5H 6H-pyrrolo[3,4-c]pyrazole-5-carbonyl]-4-{[(2S)-1 1 1-trifluoropropan-2-yl]oxy}benzonitrile]",< 0.1
13,"COc1c(C#N)ccc(O[C@@H](C)C(F)(F)F)c1C(=O)N1Cc2cn(-c3cc(C)ccn3)nc2C1 [Example 274, 2-Methoxy-3-[2-(4-methylpyridin-2-yl)-2H 4H 5H 6H-pyrrolo[3,4-c]pyrazole-5-carbonyl]-4-{[(2S)-1 1 1-trifluoropropan-2-yl]oxy}benzonitrile]",< 0.1
14,"COc1cccc(-n2cc3c(n2)CN(C(=O)c2c(O[C@@H](C)C(F)(F)F)ccc(C#N)c2OC)C3)n1 [Example 275, 2-Methoxy-3-[2-(6-methoxypyridin-2-yl)-2H 4H 5H 6H-pyrrolo[3,4-c]pyrazole-5-carbonyl]-4-{[(2S)-1 1 1-trifluoropropan-2-yl]oxy}benzonitrile]",< 0.1
15,"COc1cccc(-n2cc3c(n2)CN(C(=O)c2c(O[C@@H](C)C(F)(F)F)ccc(C#N)c2Cl)C3)n1 [Example 276, 2-Chloro-3-[2-(6-methoxypyridin-2-yl)-2H 4H 5H 6H-pyrrolo[3,4-c]pyrazole-5-carbonyl]-4-{[(2S)-1 1 1-trifluoropropan-2-yl]oxy}benzonitrile]",< 0.1
16,"COc1cc(-n2cc3c(n2)CN(C(=O)c2c(O[C@@H](C)C(F)(F)F)ccc(C#N)c2OC)C3)ccn1 [Example 277, 2-Methoxy-3-[2-(2-methoxypyridin-4-yl)-2H 4H 5H 6H-pyrrolo[3,4-c]pyrazole-5-carbonyl]-4-{[(2S)-1 1 1-trifluoropropan-2-yl]oxy}benzonitrile]",< 0.1

# Results, then the molecule that gave them:
row,IC50 [µM],SMILES
1,< 0.1,"COc1c(C#N)ccc(O[C@@H](C)C(F)(F)F)c1C(=O)N1Cc2cn(-c3ccc(C)cn3)nc2C1 [Example 278, 2-Methoxy-3-[2-(5-methylpyridin-2-yl)-2H 4H 5H 6H-pyrrolo[3,4-c]pyrazole-5-carbonyl]-4-{[(2S)-1 1 1-trifluoropropan-2-yl]oxy}benzonitrile]"
2,< 0.1,"C[C@H](Oc1ccc(C#N)c(Cl)c1C(=O)N1Cc2cn(-c3cnn(C)c3)nc2C1)C(F)(F)F [Example 279, 2-Chloro-3-[2-(1-methyl-1H-pyrazol-4-yl)-2H 4H 5H 6H-pyrrolo[3,4-c]pyrazole-5-carbonyl]-4-{[(2S)-1 1 1-trifluoropropan-2-yl]oxy}benzonitrile]"
3,0.1 to 1,"COc1c(C#N)ccc(O[C@@H](C)C(F)(F)F)c1C(=O)N1Cc2cn(-c3cn(C)c(C)n3)nc2C1 [Example 280, 3-[2-(1 2-Dimethyl-1H-imidazol-4-yl)-2H 4H 5H 6H-pyrrolo[3,4-c]pyrazole-5-carbonyl]-2-methoxy-4-{[(2S)-1 1 1-trifluoropropan-2-yl]oxy}benzonitrile]"
4,0.1 to 1,"COc1c(C#N)ccc(O[C@@H](C)C(F)(F)F)c1C(=O)N1Cc2cnn(-c3cn(C)c(C)n3)c2C1 [Example 281, 3-[1-(1 2-Dimethyl-1H-imidazol-4-yl)-1H 4H 5H 6H-pyrrolo[3,4-c]pyrazole-5-carbonyl]-2-methoxy-4-{[(2S)-1 1 1-trifluoropropan-2-yl]oxy}benzonitrile]"
5,0.1 to 1,"Cc1nc(-n2cc3c(n2)CN(C(=O)c2c(O[C@@H](C)C(F)(F)F)ccc(C#N)c2Cl)C3)cn1C [Example 282, 2-Chloro-3-[2-(1 2-dimethyl-1H-imidazol-4-yl)-2H 4H 5H 6H-pyrrolo[3,4-c]pyrazole-5-carbonyl]-4-{[(2S)-1 1 1-trifluoropropan-2-yl]oxy}benzonitrile]"
6,< 0.1,"COc1c(C#N)ccc(O[C@@H](C)C(F)(F)F)c1C(=O)N1Cc2cn(-c3ccc(C#N)cc3)nc2C1 [Example 283, 3-[2-(4-Cyanophenyl)-2H 4H 5H 6H-pyrrolo[3,4-c]pyrazole-5-carbonyl]-2-methoxy-4-{[(2S)-1 1 1-trifluoropropan-2-yl]oxy}benzonitrile]"
7,< 0.1,"COc1c(C#N)ccc(O[C@@H](C)C(F)(F)F)c1C(=O)N1Cc2cnn(-c3ccc(C#N)cc3)c2C1 [Example 284, 3-[1-(4-Cyanophenyl)-1H 4H 5H 6H-pyrrolo[3,4-c]pyrazole-5-carbonyl]-2-methoxy-4-{[(2S)-1 1 1-trifluoropropan-2-yl]oxy}benzonitrile]"
8,0.1 to 1,"COc1c(C#N)ccc(O[C@@H](C)C(F)(F)F)c1C(=O)N1Cc2cn(-c3ccc(C(F)(F)F)cn3)nc2C1 [Example 285, 2-Methoxy-3-{2-[5-(trifluoromethyl)pyridin-2-yl]-2H 4H 5H 6H-pyrrolo[3,4-apyrazole-5-carbonyl}-4-{1(2S)-1 1 1-trifluoropropan-2-yl]oxy}benzonitrile]"
9,0.1 to 1,C[C@H](Oc1ccc(C#N)c(Cl)c1C(=O)N1Cc2cn(-c3ccc(C(F)(F)F)cn3)nc2C1)C(F)(F)F [Example 286]
10,< 0.1,"Cc1cc(-n2cc3c(n2)CN(C(=O)c2c(O[C@H](C)C(F)(F)F)ccc(C#N)c2Cl)C3)ccn1 [Example 287, 2-Chloro-3-[2-(2-methylpyridin-4-yl)-2H 4H 5H 6H-pyrrolo[3,4-c]pyrazole-5-carbonyl]-4-{[(2R)-1 1 1-trifluoropropan-2-yl]oxy}benzonitrile]"
